The values that follow come from patent US10287253B2, “Substituted pyrimidines containing acidic groups as TLR7 modulators” (Apros Therapeutics, Inc., priority 2016, dated 2019).

human TLR7 (hTLR7), sequence (Q9NYK1 27-1049): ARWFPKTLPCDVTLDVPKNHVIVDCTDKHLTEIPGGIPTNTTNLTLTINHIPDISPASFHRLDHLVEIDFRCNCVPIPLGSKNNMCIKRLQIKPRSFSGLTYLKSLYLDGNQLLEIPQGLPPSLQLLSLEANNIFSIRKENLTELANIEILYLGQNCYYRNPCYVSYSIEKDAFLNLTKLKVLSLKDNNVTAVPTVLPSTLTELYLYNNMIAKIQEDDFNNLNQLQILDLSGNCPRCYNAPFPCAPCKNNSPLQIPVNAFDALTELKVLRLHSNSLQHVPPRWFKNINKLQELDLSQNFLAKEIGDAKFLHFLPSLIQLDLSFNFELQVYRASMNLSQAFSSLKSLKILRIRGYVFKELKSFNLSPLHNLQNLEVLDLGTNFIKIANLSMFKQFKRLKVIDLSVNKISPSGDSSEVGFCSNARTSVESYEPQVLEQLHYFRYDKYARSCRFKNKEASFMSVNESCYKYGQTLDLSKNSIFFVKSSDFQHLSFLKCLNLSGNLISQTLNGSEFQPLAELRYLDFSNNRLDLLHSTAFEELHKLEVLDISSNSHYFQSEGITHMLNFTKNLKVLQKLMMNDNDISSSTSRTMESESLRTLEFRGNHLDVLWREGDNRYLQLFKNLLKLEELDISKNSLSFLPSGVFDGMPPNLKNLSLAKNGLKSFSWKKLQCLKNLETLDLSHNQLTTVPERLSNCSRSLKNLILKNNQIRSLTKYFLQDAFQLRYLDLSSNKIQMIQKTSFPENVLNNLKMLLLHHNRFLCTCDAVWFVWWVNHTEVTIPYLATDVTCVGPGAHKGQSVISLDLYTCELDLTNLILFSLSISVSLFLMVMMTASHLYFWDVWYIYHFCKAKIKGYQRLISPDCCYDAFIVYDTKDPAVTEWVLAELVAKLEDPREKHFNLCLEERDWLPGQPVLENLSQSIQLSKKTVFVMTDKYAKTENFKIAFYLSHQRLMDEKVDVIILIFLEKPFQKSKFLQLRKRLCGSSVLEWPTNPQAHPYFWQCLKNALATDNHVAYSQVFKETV

The first series concerns the target human TLR7 (hTLR7) (Homo sapiens (Human), UniProt Q9NYK1). In words: HEK TLR7 assay (HEK-Blue hTLR7 cells, NF-kB/AP-1 SEAP reporter). It counts as cell-based. To be noted: HEK-Blue hTLR7 cells, 16 h incubation, SEAP read at 620-655 nm. An excerpt:
HEK-Blue™ TLR7 cells were purchased from Invivogen (San Diego, Calif.). The following description was taken from the product information sheet.
“HEK-Blue™ hTLR7 cells are designed for studying the stimulation of human TLR7 (hTLR7) by monitoring the activation of NF-kB. HEK-Blue™ hTLR7 cells were obtained by co-transfection of the hTLR7 gene and an optimized secreted embryonic alkaline phosphatase (SEAP) reporter gene into HEK293 cells. The SEAP reporter gene is placed under the control of the IFN-b minimal promoter fused to five NF-kB and AP-1-binding sites. Stimulation with a TLR7 ligand activates NF-kB and AP-1 which induce the production of SEAP, which is detected by the HEK-Blue™ Detection cell culture medium.”
A typical assay protocol involved the following steps: • 1. Cells were cultured according to the product information sheet. • 2. 10 mM compound stock in DMSO were first diluted to 3 mM and then 3-fold serially diluted using DMSO to afford a 10-pt dilution. • 3. 3 μl of the diluted DMSO were added to 57 μl HEK-Blue™ Detection media for a further 20-fold dilution. • 4. 10 μl of the diluted compound in assay media were added into 40 μl cell culture (in HEK-Blue™ Detection media) in 384-well plate. Final cell concentration=8,000 cells per well. • 5. The plates were incubated at 37° C. in 5% CO2 for 16 h. SEAP was determined using a spectrophotometer at 620-655 nm.
The term EC50 denotes the concentration giving half of the maximal effect. A lower EC50 goes with higher potency in that assay. With `CCCCNc1nc(N)nc(C)c1Cc1ccc(CCC(=O)O)cc1OC` [Compound 1, 3-(4-((2-amino-4-(butylamino)-6-methylpyrimidin-5-yl)methyl)-3-methoxyphenyl)propanoic acid], the concentration giving a half-maximal response (EC50) lay within 1000 to 10000 nM.

In the case of `CCCCNc1nc(N)nc(C)c1Cc1ccc(Cc2nn[nH]n2)cc1OC` [Compound 2, 5-(4-((2H-tetrazol-5-yl)methyl)-2-methoxybenzyl)-N4-butyl-6-methylpyrimidine-2,4-diamine], the EC50 fell in the range of 1000 to 10000 nM.

`CCCCNc1nc(N)nc(C)c1Cc1cc(Cc2nn[nH]n2)ccc1OC` [Compound 3, 5-(5-((2H-tetrazol-5-yl)methyl)-2-methoxybenzyl)-N4-butyl-6-methylpyrimidine-2,4-diamine] returned an EC50 of 100 to 1000 nM.

The compound `CCCCNc1nc(N)nc(C)c1Cc1cc(CCC(=O)O)ccc1OC` [Compound 4, 3-(3-((2-amino-4-(butylamino)-6-methylpyrimidin-5-yl)methyl)-4-methoxyphenyl)propanoic acid] returned an EC50 of 1000 to 10000 nM.

For the compound `CCCCNc1nc(N)nc(C)c1Cc1cc(Cc2nnn(CC(=O)O)n2)ccc1OC` [Compound 5, 2-(5-(3-((2-amino-4-(butylamino)-6-methylpyrimidin-5-yl)methyl)-4-methoxybenzyl)-2H-tetrazol-2-yl)acetic acid], the EC50 is 1000 to 10000 nM.

`CCCCNc1nc(N)nc(C)c1Cc1cc(Cc2nnnn2CC(=O)O)ccc1OC` [Compound 6, 2-(5-(3-((2-amino-4-(butylamino)-6-methylpyrimidin-5-yl)methyl)-4-methoxybenzyl)-1H-tetrazol-1-yl)acetic acid]: the EC50 is 1000 to 10000 nM.

For `CCCCNc1nc(N)nc(C)c1Cc1cc(CP(=O)(O)O)ccc1OC` [Compound 7, (3-((2-amino-4-(butylamino)-6-methylpyrimidin-5-yl)methyl)-4-methoxybenzyl)phosphonic acid], the EC50 was in the range of 1000 to 10000 nM.

Turning to `CCC[C@@H](CO)Nc1nc(N)nc(C)c1Cc1cc(Cc2nn[nH]n2)ccc1OC` [Compound 8, (S)-2-((5-(5-((2H-tetrazol-5-yl)methyl)-2-methoxybenzyl)-2-amino-6-methylpyrimidin-4-yl)amino)pentan-1-ol], the EC50 fell in the range of 100 to 1000 nM.

As to `CCCCNc1nc(N)nc(C)c1Cc1cc(C2(C(=O)O)CC2)ccc1OC` [Compound 14, 1-(3-((2-amino-4-(butylamino)-6-methylpyrimidin-5-yl)methyl)-4-methoxyphenyl)cyclopropane-1-carboxylic acid], the EC50 lay in the range of 1000 to 10000 nM.

Consider `CCCCNc1nc(N)nc(C)c1Cc1cc(C(=O)NCCS(=O)(=O)O)ccc1OC` [Compound 16, 2-(3-((2-amino-4-(butylamino)-6-methylpyrimidin-5-yl)methyl)-4-methoxybenzamido)ethane-1-sulfonic acid], for which the EC50 was 100 to 1000 nM.

Turning to `CCCCNc1nc(N)nc(CCC(=O)O)c1CCc1ccc(OC)cc1` [Compound 19, 3-(2-amino-6-(butylamino)-5-(4-methoxyphenethyl)pyrimidin-4-yl)pro-panoic acid], the EC50 fell in the range of 1000 to 10000 nM.

`CCCC[C@H](CC(=O)O)Nc1nc(N)nc(C)c1Cc1cc(Cc2nn[nH]n2)ccc1OC` [Compound 20C, (R)-3-((5-(5-((2H-tetrazol-5-yl)methyl)-2-methoxybenzyl)-2-amino-6-methylpyrimidin-4-yl)amino)heptanoic acid] returned an EC50 of 1000 to 10000 nM.

The compound `CCCC[C@@H](CCO)Nc1nc(N)nc(CCC(=O)O)c1OC` [Compound 21, (S)-3-(2-amino-6-((1-hydroxyheptan-3-yl)amino)-5-methoxypyrimidin-4-yl)propanoic acid] yielded an EC50 of 1000 to 10000 nM.

`CCCCNc1nc(N)nc(C)c1Cc1cc(C(=O)NCCCC(=O)O)ccc1OC` [Compound 25, 4-(3-((2-amino-4-(butylamino)-6-methylpyrimidin-5-yl)methyl)-4-methoxybenzamido)butanoic acid] showed an EC50 of 100 to 1000 nM.

With `CCCCCNc1nc(N)nc(C)c1Cc1cc(Cc2nn[nH]n2)ccc1OC` [Compound 26, 5-(5-((2H-tetrazol-5-yl)methyl)-2-methoxybenzyl)-6-methyl-M-pentylpyrimidine-2,4-diamine], the EC50 is 100 to 1000 nM.

As for `CCCC[C@@H](CCO)Nc1nc(N)nc(CCC(=O)O)c1Cc1ccccc1OC` [Compound 27, (S)-3-(2-amino-6-((1-hydroxyheptan-3-yl)amino)-5-(2-methoxybenzyl)-pyrimidin-4-yl)propanoic acid], the EC50 lay within 100 to 1000 nM.

Compound `CCCCNc1nc(N)nc(C)c1Cc1cc(C(=O)NCCCc2nn[nH]n2)ccc1OC` [Compound 28, N-(3-(2H-tetrazol-5-yl)propyl)-3-((2-amino-4-(butylamino)-6-methyl-pyrimidin-5-yl)methyl)-4-methoxybenzamide] had an EC50 of 1000 to 10000 nM.

Take `CCCCNc1nc(N)nc(C)c1Sc1cc(Cc2nn[nH]n2)ccc1OC` [Compound 31, 5-((5-((2H-tetrazol-5-yl)methyl)-2-methoxyphenyl)thio)-N^4-butyl-6-methylpyrimidine-2,4-diamine]: the EC50 was 1000 to 10000 nM.

Turning to `CCCC[C@@H](CCc1nn[nH]n1)Nc1nc(N)nc(C)c1Cc1ccccc1OC` [Compound 36, (S)—N^4-(1-(2H-tetrazol-5-yl)heptan-3-yl)-S-(2-methoxybenzyl)-6-methylpyrimidine-2,4-diamine], the EC50 lay in the range of 100 to 1000 nM.

As to `CCCCNc1nc(N)nc(CCc2nn[nH]n2)c1Cc1ccccc1OC` [Compound 37, 6-(2-(2H-tetrazol-5-yl)ethyl)-N^4-butyl-5-(2-methoxybenzyl)pyrimidine-2,4-diamine], the EC50 was in the range of 100 to 1000 nM.

In turn, `CCCC[C@@H](CCSC)Nc1nc(N)nc(CCC(=O)O)c1Cc1ccccc1OC` [Compound 38, (S)-3-(2-amino-5-(2-methoxybenzyl)-6-((1-(methylthio)heptan-3-yl)amino)pyrimidin-4-yl)propanoic acid] had an EC50 of less than 100 nM.

`CCCC(C)Nc1nc(N)nc(C)c1Cc1cc(Cc2nn[nH]n2)ccc1OC` (stereo not drawn) [Compound 39, 5-(5-((2H-tetrazol-5-yl)methyl)-2-methoxybenzyl)-6-methyl-N^4-(pentan-2-yl)pyrimidine-2,4-diamine] displayed an EC50 of 100 to 1000 nM.

In turn, `CCCCNc1nc(N)nc(CCCO)c1Cc1ccccc1OC` [Compound 47, 3-(2-amino-6-(butylamino)-5-(2-methoxybenzyl)pyrimidin-4-yl)propan-1-ol] yielded an EC50 of 100 to 1000 nM.

Regarding `CCCC[C@@H](CCSC)Nc1nc(N)nc(CCC(=O)O)c1Cc1cc(Cc2nn[nH]n2)ccc1OC` [Compound 48, (S)-3-(5-(5-((2H-tetrazol-5-yl)methyl)-2-methoxybenzyl)-2-amino-6-((1-(methylthio)-heptan-3-yl)amino)pyrimidin-4-yl)propanoic acid], the EC50 is less than 100 nM.

Regarding `CCCC[C@@H](CCOC)Nc1nc(N)nc(CCC(=O)O)c1Cc1cc(Cc2nn[nH]n2)ccc1OC` [Compound 49, (S)-3-(5-(5-((2H-tetrazol-5-yl)methyl)-2-methoxybenzyl)-2-amino-6-((1-methoxyheptan-3-yl)amino)pyrimidin-4-yl)propanoic acid], the EC50 lay within 100 to 1000 nM.

As for `CCCC[C@@H](CCS(C)(=O)=O)Nc1nc(N)nc(CCC(=O)O)c1Cc1cc(CC(=O)O)ccc1OC` [Compound 50, (S)-3-(2-amino-5-(5-(carboxymethyl)-2-methoxybenzyl)-6-((1-(methylsulfonyl)heptan-3-yl)amino)pyrimidin-4-yl)propanoic acid], the EC50 was in the range of 100 to 1000 nM.

As to `CCCC[C@@H](CCS(C)(=O)=O)Nc1nc(N)nc(C)c1Cc1cc(CC(=O)O)ccc1OC` [Compound 51, (S)-2-(3-((2-amino-4-methyl-6-((1-(methylsulfonyl)heptan-3-yl)amino)pyrimidin-5-yl)methyl)-4-methoxyphenyl)acetic acid], the EC50 was in the range of 100 to 1000 nM.

Test system in another series: not listed separately
Briefly: Pharmacokinetics experiments: mouse liver-to-serum concentration (L:S). It counts as in vivo. To be noted: BALB/c mice, 10 mg/kg p.o., 5 hour post dose. As to the method:
BALB/c mice were dosed p.o. with 10 mg/kg compound formulated in 0.5% carboxy methycellulose+0.5% Tween-80 suspension. Mice were bled retro-orbitally at different time points post dose. Blood was processed into serum by centrifugation followed by protein precipitation, reverse-phase gradient elution and MRM detection via ESI+mass spectrometry to determine compound concentration. Animals were sacrificed after the final blood collection (5 hour), liver removed and flash frozen in liquid nitrogen for tissue PK analyses. The liver-to-serum concentration (L:S) at 5 hour post dose is one parameter for identifying compounds with potential enrichment in liver.
Mouse liver-to-serum concentration (L:S) table below provides results.
For `CCCCNc1nc(N)nc(C)c1Cc1cc(Cc2nn[nH]n2)ccc1OC` [Compound 3, 5-(5-((2H-tetrazol-5-yl)methyl)-2-methoxybenzyl)-N4-butyl-6-methylpyrimidine-2,4-diamine], the “L:S at 5 hr (liver-to-serum concentration)” value (from here on “L:S at 5 hr”) is “A (A = >100 represents high liver-enrichment)”.

On to `CCCC[C@@H](CCSC)Nc1nc(N)nc(C)c1Cc1cc(Cc2nn[nH]n2)ccc1OC` [Compound 22, (S)-5-(5-((2H-tetrazol-5-yl)methyl)-2-methoxybenzyl)-6-methyl-N^4-(1-(methylthio)heptan-3-yl)pyrimidine-2,4-diamine], for which the “L:S at 5 hr” value is recorded as “A (A = >100 represents high liver-enrichment)”.

Take `CCCC[C@@H](CCS(C)(=O)=O)Nc1nc(N)nc(C)c1Cc1cc(Cc2nn[nH]n2)ccc1OC` [Compound 23, (S)-5-(5-((2H-tetrazol-5-yl)methyl)-2-methoxybenzyl)-6-methyl-N^4-(1-(methylsulfonyl)heptan-3-yl)pyrimidine-2,4-diamine]: the “L:S at 5 hr” value is listed as “A (A = >100 represents high liver-enrichment)”.
